Test results reported in patent publication US12084416B2, “Substituted sulfonylurea derivatives” (Zydus Lifesciences Limited, priority 2019, dated 2024).
Like-named read-outs stand apart in the source and are kept apart here.

Key:
IL-1β [1] = assay: In-vivo LPS and ATP induced IL-1β assay; conditions: Mus musculus, 2.5 h; Dose 10 mpk, po; female C57 mice; serum IL-1β by ELISA; read-out: % IL-1β inhibition in LPS + ATP challenged C57 mice
Method: All the animal experiments were carried out in female rats and mice, bred in-house. Animals were housed in groups of 6 animals per cage, for a week, in order to habituate them to vivarium conditions (25 f 4° C., 60-65% relative humidity, 12:12 h light:dark cycle, with lights on at 7.30 am). All the animal experiments were carried out according to the internationally valid guidelines following approval by the ‘Zydus Research Center animal ethical committee’.
Female C57 mice (6-8 weeks) received intraperitoneal injection of 50 μg/mouse of lipopolysaccharide (LPS) in PBS. Animals were treated immediately with the test compounds or the vehicle. After 2 h of LPS injection, animals were administered with ATP at 12.5 mg/mouse dissolved in PBS via intraperitoneal route. After 30 minutes of ATP injection, serum was collected for IL-1β estimation by ELISA.

IL-1β [2] = assay: In-vitro IL-1β inhibition assay in PMA-differentiated, LPS-primed, ATP-stimulated THP1 cells; type: cell-based; conditions: Homo sapiens
Method: THP1 monocytes were differentiated with PMA (100 ng/mL) and incubated at 37 deg C. for 20 hrs in presence of 5% CO2. 2×10^5 differentiated cells were plated per well of 96 well tissue culture plates. The cells were primed using 500 ng/mL Lipopolysaccharide and incubating for 4 h under the same condition. The cells were then treated with various concentrations of the compounds for 30 min followed by treatment with 5 mM ATP for 1 hr. The supernatants were collected and analyzed by IL-1b (Mabtech Cat #3415-1H-20) or TNF-α (Mabtech; Cat #3510-1H-20) detection kit. The data were analyzed using GraphPad Prism V7.0. Dose Response Curve (DRC) was constructed to determine the IC50 value by fitting percentage […] data to the GraphPad Prism using nonlinear regression analysis.

[3] = THP-1, read-out: IC50 (nM), invitro IL-1β inhibitory activity
[4] = THP-1, THP1 monocytes differentiated with PMA, primed with 500 ng/mL LPS, compound 30 min, 5 mM ATP 1 hr, IL-1β in supernatant, read-out: IC50 (nM), invitro IL-1β inhibitory activity

IC50 (IL-1β [2]; [4]) [nM] | SMILES | further results
87 | O=C(Nc1c2c(cc3c1CCC3)CCC2)NS(=O)(=O)/C=C/C1CCOCC1 [Example 71, (E)-N-((1,2,3,5,6,7-hexahydro-s-indacen-4-yl)carbamoyl)-2-(tetrahydro-2H-pyran-4-yl)ethenesulfonamide] | –
16 | CC(C)(C)OC(=O)N1CC2CC(N3CCC[C@@H]3/C=C/S(=O)(=O)NC(=O)Nc3c4c(cc5c3CCC5)CCC4)CC2C1 (stereo partly drawn) [Example 131, tert-butyl 5-((R)-2-((E)-2-(N-((1,2,3,5,6,7-hexahydro-s-indacen-4-yl)carbamoyl)sulfamoyl)vinyl)pyrrolidin-1-yl)hexahydrocyclopenta[c]pyrrole-2 (1H)-carboxylate] | –
64 | CC(C)(C)OC(=O)N1CCC[C@@H]1/C=C/S(=O)(=O)NC(=O)Nc1c2c(cc3c1CCC3)CCC2 [Example 10, tert-butyl (R,E)-2-(2-(N-((1,2,3,5,6,7-hexahydro-s-indacen-4-yl)carbamoyl)sulfamoyl)-vinyl)pyrrolidine-1-carboxylate] | –
5.9 | C[C@@]1(/C=C/S(=O)(=O)NC(=O)Nc2c3c(cc4c2CCC4)CCC3)CCCN1S(=O)(=O)C1CC1 [Example 129, (S,E)-2-(1-(cyclopropylsulfonyl)-2-methylpyrrolidin-2-yl)-N-((1,2,3,5,6,7-hexahydro-s-indacen-4-yl)carbamoyl)ethene-1-sulfonamide] | –
2.4 | CCS(=O)(=O)N1CCC[C@@H]1/C=C/S(=O)(=O)NC(=O)Nc1c2c(cc3c1CCC3)CCC2 [Example 21, (R,E)-2-(1-(ethylsulfonyl)pyrrolidin-2-yl)-N-((1,2,3,5,6,7-hexahydro-s-indacen-4-yl)carbamoyl)ethene-1-sulfonamide] | –
70 | O=C(Nc1c2c(cc3c1CCC3)CCC2)NS(=O)(=O)/C=C/C1CCCCN1 (stereo not drawn) [Example 100, (E)-N-((1,2,3,5,6,7-hexahydro-s-indacen-4-yl)carbamoyl)-2-(piperidin-2-yl)ethene-1-sulfonamide] | –
16 | O=C(Nc1c2c(cc3c1CCC3)CCC2)NS(=O)(=O)/C=C/[C@@H]1CCCN1S(=O)(=O)c1ccc(Cl)s1 [Example 90, (S,E)-2-(1-((5-chlorothiophen-2-yl)sulfonyl)pyrrolidin-2-yl)-N-((1,2,3,5,6,7-hexahydro-s-indacen-4-yl)carbamoyl)ethenesulfonamide] | –
61 | C[C@@]1(/C=C/S(=O)(=O)NC(=O)Nc2c3c(cc4c2CCC4)CCC3)CCCN1 [Example 105, (S,E)-N-((1,2,3,5,6,7-hexahydro-s-indacen-4-yl)carbamoyl)-2-(2-methylpyrrolidin-2-yl)ethene-1-sulfonamide] | –
5.6 | C=CCN1CCC[C@H]1/C=C/S(=O)(=O)NC(=O)Nc1c2c(cc3c1CCC3)CCC2 [Example 127, (S,E)-2-(1-allylpyrrolidin-2-yl)-N-((1,2,3,5,6,7-hexahydro-s-indacen-4-yl)carbamoyl)ethene-1-sulfonamide] | –
10.7 | CC(=O)N1CCC[C@@H]1/C=C/S(=O)(=O)NC(=O)Nc1c2c(cc3c1CCC3)CCC2 [Example 8, (R,E)-2-(1-acetylpyrrolidin-2-yl)-N-((1,2,3,5,6,7-hexahydro-s-indacen-4-yl)carbamoyl)-ethene-1-sulfonamide] | –
4.3 | CC(C)(C)OC(=O)N1CCC[C@@]1(C)/C=C/S(=O)(=O)NC(=O)Nc1c2c(cc3c1CCC3)CCC2 [Example 111, tert-butyl(S,E)-2-(2-(N-((1,2,3,5,6,7-hexahydro-s-indacen-4-yl)carbamoyl)sulfamoyl)vinyl)-2-methylpyrrolidine-1-carboxylate] | –

Further lines, the compound ahead of its results:

SMILES | IC50 (IL-1β [2]; [4]) [nM] | further results
O=C(Nc1c2c(cc3c1CCC3)CCC2)NS(=O)(=O)/C=C/[C@H]1CCCN1C1CCSCC1 [Example 40, (R,E)-N-((1,2,3,5,6,7-hexahydro-s-indacen-4-yl)carbamoyl)-2-(1-(tetrahydro-2H-thiopyran-4-yl)pyrrolidin-2-yl)ethene-1-sulfonamide] | – | inhibition in vivo at 10 mg/kg (IL-1β [1]): 86%
O=C(Nc1c2c(cc3c1CCC3)CCC2)NS(=O)(=O)/C=C/[C@H]1CCCN1C1CCSCC1 [Example 139, Sodium(R,E)-((1,2,3,5,6,7-hexahydro-s-indacen-4-yl)carbamoyl)((2-(1-(tetrahydro-2H-thiopyran-4-yl)pyrrolidin-2-yl)vinyl)sulfonyl)amide] | – | IC50 (IL-1β [2]; [3]): 21 nM
CN1CCCCC1/C=C/S(=O)(=O)NC(=O)Nc1c2c(cc3c1CCC3)CCC2 (stereo not drawn) [Example 101, (E)-N-((1,2,3,5,6,7-hexahydro-s-indacen-4-yl)carbamoyl)-2-(1-methylpiperidin-2-yl)ethene-1-sulfonamide] | – | inhibition in vivo at 10 mg/kg (IL-1β [1]): 82%
O=C(Nc1c2c(cc3c1CCC3)CCC2)NS(=O)(=O)/C=C/[C@@H]1CCCN1S(=O)(=O)Cc1ccccc1 [Example 91, (S,E)-2-(1-(benzylsulfonyl)pyrrolidin-2-yl)-N-((1,2,3,5,6,7-hexahydro-s-indacen-4-yl)carbamoyl)ethenesulfonamide] | 2.9 | –
C[C@]1(/C=C/S(=O)(=O)NC(=O)Nc2c3c(cc4c2CCC4)CCC3)CCCN1S(C)(=O)=O [Example 55, (R,E)-N-((1,2,3,5,6,7-hexahydro-s-indacen-4-yl)carbamoyl)-2-(2-methyl-1-(methylsulfonyl)-pyrrolidin-2-yl)ethene-1-sulfonamide] | – | inhibition in vivo at 10 mg/kg (IL-1β [1]): 82.5%
CC(C)c1cc(F)cc(C(C)C)c1NC(=O)NS(=O)(=O)/C=C/[C@@H]1CCCN1C [Example 77, (S,E)-N-((4-fluoro-2,6-diisopropylphenyl)carbamoyl)-2-(1-methylpyrrolidin-2-yl)ethene-1-sulfonamide] | – | inhibition in vivo at 10 mg/kg (IL-1β [1]): 47%
CC(C)(C)OC(=O)N1CCC1(C)/C=C/S(=O)(=O)NC(=O)Nc1c2c(cc3c1CCC3)CCC2 (stereo not drawn) [Example 147, tert-butyl(E)-2-(2-(N-((1,2,3,5,6,7-hexahydro-s-indacen-4-yl)carbamoyl)sulfamoyl)vinyl)-2-methylazetidine-1-carboxylate] | – | IC50 (IL-1β [2]; [3]): 11 nM
O=C(Nc1c2c(cc3c1CCC3)CCC2)NS(=O)(=O)/C=C/[C@@H]1CCCN1S(=O)(=O)c1cccnc1 [Example 63, (S,E)-N-((1,2,3,5,6,7-hexahydro-s-indacen-4-yl)carbamoyl)-2-(1-(pyridin-3-ylsulfonyl)-pyrrolidin-2-yl)ethenesulfonamide] | 8 | –
O=C(Nc1c2c(cc3c1CCC3)CCC2)NS(=O)(=O)/C=C/[C@H]1CCCN1C(=O)c1cnccn1 [Example 14, (R,E)-N-((1,2,3,5,6,7-hexahydro-s-indacen-4-yl)carbamoyl)-2-(1-(pyrazine-2-carbonyl)pyrrolidin-2-yl)ethenesulfonamide] | 17 | –
CS(=O)(=O)N1CCCC(/C=C/S(=O)(=O)NC(=O)Nc2c3c(cc4c2CCC4)CCC3)C1 (stereo not drawn) [Example 84, (E)-N-((1,2,3,5,6,7-hexahydro-s-indacen-4-yl)carbamoyl)-2-(1-(methylsulfonyl)piperidin-3-yl)ethenesulfonamide] | 8.5 | –
CS(=O)(=O)CCCN1CCC[C@@H]1/C=C/S(=O)(=O)NC(=O)Nc1c2c(cc3c1CCC3)CCC2 [Example 23, (R,E)-N-((1,2,3,5,6,7-hexahydro-s-indacen-4-yl)carbamoyl)-2-(1-(3-(methylsulfonyl)propyl)pyrrolidin-2-yl)ethenesulfonamide] | 14 | –
CC(=O)N1CCC1/C=C/S(=O)(=O)NC(=O)Nc1c2c(cc3c1CCC3)CCC2 (stereo not drawn) [Example 125, (E)-2-(1-acetylazetidin-2-yl)-N-((1,2,3,5,6,7-hexahydro-s-indacen-4-yl)carbamoyl)ethene-1-sulfonamide] | 16.4 | –
CC[C@@]1(/C=C/S(=O)(=O)NC(=O)Nc2c3c(cc4c2CCC4)CCC3)CCCN1C(=O)OC(C)(C)C [Example 149, tert-butyl(S,E)-2-ethyl-2-(2-(N-((1,2,3,5,6,7-hexahydro-s-indacen-4-yl)carbamoyl)sulfamoyl)vinyl)pyrrolidine-1-carboxylate] | – | IC50 (IL-1β [2]; [3]): 11 nM
O=C(Nc1c2c(cc3c1CCC3)CCC2)NS(=O)(=O)/C=C/[C@H]1CCCN1S(=O)(=O)c1cccc(F)c1 [Example 13, (R,E)-2-(1-((3-fluorophenyl)sulfonyl)pyrrolidin-2-yl)-N-((1,2,3,5,6,7-hexahydro-s-indacen-4-yl)carbamoyl)ethenesulfonamide] | 9 | –
CN1CCC[C@@]1(C)/C=C/S(=O)(=O)NC(=O)Nc1c2c(cc3c1CCC3)CCC2 [Example 144, sodium(S,E)-((2-(1,2-dimethylpyrrolidin-2-yl)vinyl)sulfonyl)((1,2,3,5,6,7-hexahydro-s-indacen-4-yl)carbamoyl)amide] | – | IC50 (IL-1β [2]; [3]): 8.6 nM
CN1CCC[C@@]1(C)/C=C/S(=O)(=O)NC(=O)Nc1cc2c(c3c1CCC3)CCC2 [Example 153, (S,E)-2-(1,2-dimethylpyrrolidin-2-yl)-N-((1,2,3,6,7,8-hexahydro-as-indacen-4-yl)carbamoyl)ethene-1-sulfonamide] | – | IC50 (IL-1β [2]; [3]): 32 nM
